Target: T1, human Cereblon WT GST-tagged protein (Homo sapiens, UniProt Q96SW2)
T1 construct: purchased CISBIO 64BDCRBNPEH
Assay: CRBN binding, HTRF CEREBLON BINDING kit
Conditions: CRBN binding, HTRF CEREBLON BINDING kit
Procedure, shortened: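 HTRF competition in which test compounds displace a Thalidomide-Re tracer from GST-tagged human Cereblon WT, detected with a GST Eu antibody. Incubation lasted 3 hours at room temperature, with emission read at 620 and 665 nm. Inhibition rate was derived from 665/620 ratios relative to blank and solvent control wells.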

T1 sequence (Q96SW2 whole entry): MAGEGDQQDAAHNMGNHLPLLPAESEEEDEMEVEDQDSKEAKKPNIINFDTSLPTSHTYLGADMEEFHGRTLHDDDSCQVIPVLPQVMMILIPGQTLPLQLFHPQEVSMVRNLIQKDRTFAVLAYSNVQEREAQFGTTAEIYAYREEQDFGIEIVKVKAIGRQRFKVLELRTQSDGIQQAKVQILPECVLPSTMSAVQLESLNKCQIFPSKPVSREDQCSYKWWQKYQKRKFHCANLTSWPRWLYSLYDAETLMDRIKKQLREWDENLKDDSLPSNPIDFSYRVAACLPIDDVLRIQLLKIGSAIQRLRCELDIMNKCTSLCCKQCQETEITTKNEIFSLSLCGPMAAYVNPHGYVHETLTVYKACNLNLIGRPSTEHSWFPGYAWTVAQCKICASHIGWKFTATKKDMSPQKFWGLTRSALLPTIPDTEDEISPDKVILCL

Structure (SMILES) | IC50
CCc1cc2c(cc1N1CCC(N3CCN(Cc4ccc(N5CCC(=O)NC5=O)cc4)CC3)CC1)C(C)(C)c1[nH]c3cc(C#N)ccc3c1C2=O [GT-07307, 8-(4-(4-(4-(2,4-dioxotetrahydropyrimidin-1(2H)-yl)benzyl)piperazin-1-yl)piperidin-1-yl)-9-ethyl-6,6-dimethyl-11-oxo-6,11-dihydro-5H-benzo[b]carbazole-3-carbonitrile] | 500 to 1000 nM
CCc1cc2c(cc1N1CCC(N3CCN(Cc4ccc(N5CCC(=O)NC5=O)c(F)c4)CC3)CC1)C(C)(C)c1[nH]c3cc(C#N)ccc3c1C2=O [GT-07308, 8-(4-(4-(4-(2,4-dioxotetrahydropyrimidin-1(2H)-yl)-3-fluorobenzyl)piperazin-1-yl)piperidin-1-yl)-9-ethyl-6,6-dimethyl-11-oxo-6,11-dihydro-5H-benzo[b]carbazole-3-carbonitrile] | 500 to 1000 nM
CCc1cc2c(cc1N1CCC(N3CCN(Cc4ccc(N5CCC(=O)NC5=O)cc4F)CC3)CC1)C(C)(C)c1[nH]c3cc(C#N)ccc3c1C2=O [GT-07309, 8-(4-(4-(4-(2,4-dioxotetrahydropyrimidin-1(2H)-yl)-2-fluorobenzyl)piperazin-1-yl)piperidin-1-yl)-9-ethyl-6,6-dimethyl-11-oxo-6,11-dihydro-5H-benzo[b]carbazole-3-carbonitrile] | 500 to 1000 nM
CCc1cc2c(cc1N1CCC(N3CCN(Cc4cccc(N5CCC(=O)NC5=O)c4)CC3)CC1)C(C)(C)c1[nH]c3cc(C#N)ccc3c1C2=O [GT-07310, 8-(4-(4-(3-(2,4-dioxotetrahydropyrimidin-1(2H)-yl)benzyl)piperazin-1-yl)piperidin-1-yl)-9-ethyl-6,6-dimethyl-11-oxo-6,11-dihydro-5H-benzo[b]carbazole-3-carbonitrile] | 500 to 1000 nM
CCc1cc2c(cc1N1CCC(N3CCN(Cc4ccc(N5CCC(=O)NC5=O)cn4)CC3)CC1)C(C)(C)c1[nH]c3cc(C#N)ccc3c1C2=O [GT-07311, 8-(4-(4-((5-(2,4-dioxotetrahydropyrimidin-1(2H)-yl)pyridin-2-yl)methyl)piperazin-1-yl)piperidin-1-yl)-9-ethyl-6,6-dimethyl-11-oxo-6,11-dihydro-5H-benzo[b]carbazole-3-carbonitrile] | 500 to 1000 nM
CCc1cc2c(cc1N1CCC(N3CCN(Cc4cccc(NC5CCC(=O)NC5=O)c4)CC3)CC1)C(C)(C)c1[nH]c3cc(C#N)ccc3c1C2=O (centres unmarked) [GT-07313, 8-(4-(4-(3-((2,6-dioxopiperidin-3-yl)amino)benzyl)piperazin-1-yl)piperidin-1-yl)-9-ethyl-6,6-dimethyl-11-oxo-6,11-dihydro-5H-benzo[b]carbazole-3-carbonitrile] | 1000 to 1900 nM
CCc1cc2c(cc1N1CCN(Cc3ccc(C4CCC(=O)NC4=O)cc3)CC1)C(C)(C)c1[nH]c3cc(C#N)ccc3c1C2=O (centres unmarked) [GT-07323, 8-(4-(4-(2,6-dioxopiperidin-3-yl)benzyl)piperazin-1-yl)-9-ethyl-6,6-dimethyl-11-oxo-6,11-dihydro-5H-benzo[b]carbazole-3-carbonitrile] | 500 to 1000 nM
CCc1cc2c(cc1N1CCN(Cc3ccc(N4CCC(=O)NC4=O)cc3)CC1)C(C)(C)c1[nH]c3cc(C#N)ccc3c1C2=O [GT-07324, 8-(4-(4-(2,4-dioxotetrahydropyrimidin-1(2H)-yl)benzyl)piperazin-1-yl)-9-ethyl-6,6-dimethyl-11-oxo-6,11-dihydro-5H-benzo[b]carbazole-3-carbonitrile] | 1000 to 1900 nM
CCc1cc2c(cc1N1CCN(Cc3cccc(N4CCC(=O)NC4=O)c3)CC1)C(C)(C)c1[nH]c3cc(C#N)ccc3c1C2=O [GT-07325, 8-(4-(3-(2,4-dioxotetrahydropyrimidin-1(2H)-yl)benzyl)piperazin-1-yl)-9-ethyl-6,6-dimethyl-11-oxo-6,11-dihydro-5H-benzo[b]carbazole-3-carbonitrile] | 500 to 1000 nM
CCc1cc2c(cc1N1CCN(Cc3ccc(N4CCC(=O)NC4=O)cn3)CC1)C(C)(C)c1[nH]c3cc(C#N)ccc3c1C2=O [GT-07326, 8-(4-((5-(2,4-dioxotetrahydropyrimidin-1(2H)-yl)pyridin-2-yl)methyl)piperazin-1-yl)-9-ethyl-6,6-dimethyl-11-oxo-6,11-dihydro-5H-benzo[b]carbazole-3-carbonitrile] | 1000 to 1900 nM
CCc1cc2c(cc1N1CCN(Cc3cccc(NC4CCC(=O)NC4=O)c3)CC1)C(C)(C)c1[nH]c3cc(C#N)ccc3c1C2=O (centres unmarked) [GT-07328, 8-(4-(3-((2,6-dioxopiperidin-3-yl)amino)benzyl)piperazin-1-yl)-9-ethyl-6,6-dimethyl-11-oxo-6,11-dihydro-5H-benzo[b]carbazole-3-carbonitrile] | < 500 nM
COc1cc(N2CCN(Cc3ccc(N4CCC(=O)NC4=O)c(F)c3)CC2)ccc1Nc1ncc(Cl)c(Nc2ccccc2P(C)(C)=O)n1 [GT-07346, 1-(4-((4-(4-((5-chloro-4-((2-(dimethylphosphoryl)phenyl)amino)pyrimidin-2-yl)amino)-3-methoxyphenyl)piperazin-1-yl)methyl)-2-fluorophenyl)dihydropyrimidine-2,4(1H,3H)-dione] | 1000 to 1900 nM
COc1cc(N2CCN(Cc3cccc(N4CCC(=O)NC4=O)c3)CC2)ccc1Nc1ncc(Cl)c(Nc2ccccc2P(C)(C)=O)n1 [GT-07348, 1-(3-((4-(4-((5-chloro-4-((2-(dimethylphosphoryl)phenyl)amino)pyrimidin-2-yl)amino)-3-methoxyphenyl)piperazin-1-yl)methyl)phenyl)dihydropyrimidine-2,4(1H,3H)-dione] | 1000 to 1900 nM
Cc1cc(Nc2ncc(Cl)c(Nc3ccccc3S(=O)(=O)C(C)C)n2)c(OC(C)C)cc1C1CCN(Cc2ccc(C3CCC(=O)NC3=O)cc2)CC1 (centres unmarked) [GT-07364, 3-(4-((4-(4-((5-chloro-4-((2-(isopropylsulfonyl)phenyl)amino)pyrimidin-2-yl)amino)-5-isopropoxy-2-methylphenyl)piperidin-1-yl)methyl)phenyl)piperidine-2,6-dione] | 500 to 1000 nM
O=C1CCN(c2cc(CN3CCN(c4ccc(-c5cc(F)c6c(c5)C(=O)N(C(C(=O)Nc5nccs5)c5ncn7c5CCC7)C6)cc4)CC3)ccn2)C(=O)N1 (centres unmarked) [GT-07379, 2-(6,7-dihydro-5H-pyrrolo[1,2-c]imidazol-1-yl)-2-(6-(4-(4-((2-(2,4-dioxotetrahydropyrimidin-1(2H)-yl)pyridin-4-yl)methyl)piperazin-1-yl)phenyl)-4-fluoro-1-oxoisoindolin-2-yl)-N-(thiazol-2-yl)acetamide] | < 500 nM
O=C1CCN(c2cncc(CN3CCN(c4ccc(-c5cc(F)c6c(c5)C(=O)N(C(C(=O)Nc5nccs5)c5ncn7c5CCC7)C6)cc4)CC3)c2)C(=O)N1 (centres unmarked) [GT-07380, 2-(6,7-dihydro-5H-pyrrolo[1,2-c]imidazol-1-yl)-2-(6-(4-(4-((5-(2,4-dioxotetrahydropyrimidin-1(2H)-yl)pyridin-3-yl)methyl)piperazin-1-yl)phenyl)-4-fluoro-1-oxoisoindolin-2-yl)-N-(thiazol-2-yl)acetamide] | < 500 nM
O=C1CCC(c2ccc(CN3CCN(c4ccc(-c5cc(F)c6c(c5)C(=O)N(C(C(=O)Nc5nccs5)c5ncn7c5CCC7)C6)cc4)CC3)nc2)C(=O)N1 (centres unmarked) [GT-07381, 2-(6,7-dihydro-5H-pyrrolo[1,2-c]imidazol-1-yl)-2-(6-(4-(4-((5-(2,6-dioxopiperidin-3-yl)pyridin-2-yl)methyl)piperazin-1-yl)phenyl)-4-fluoro-1-oxoisoindolin-2-yl)-N-(thiazol-2-yl)acetamide] | < 500 nM
